Laboratory results reported in US20230348444A1, “NOVEL COMPOUNDS FOR USE IN THE TREATMENT OF DISEASES ASSOCIATED WITH ANGIOTENSIN II” (Vicore Pharma AB, priority 2020, published 2023).

Legend:
[1] = target: T1, human recombinant AT1 receptor (Homo sapiens, UniProt P30556); assay: Binding to AT1 receptor, radiometric scintillation assay (Eurofins protocol ITEM26 and ITEM24); conditions: read-out: AT1 IC50, ligand 125I (sar1,Ile8)-AT-II, 1 and 10 uM, 2-4 h at 37° C.
T1 sequence (P30556 1-359): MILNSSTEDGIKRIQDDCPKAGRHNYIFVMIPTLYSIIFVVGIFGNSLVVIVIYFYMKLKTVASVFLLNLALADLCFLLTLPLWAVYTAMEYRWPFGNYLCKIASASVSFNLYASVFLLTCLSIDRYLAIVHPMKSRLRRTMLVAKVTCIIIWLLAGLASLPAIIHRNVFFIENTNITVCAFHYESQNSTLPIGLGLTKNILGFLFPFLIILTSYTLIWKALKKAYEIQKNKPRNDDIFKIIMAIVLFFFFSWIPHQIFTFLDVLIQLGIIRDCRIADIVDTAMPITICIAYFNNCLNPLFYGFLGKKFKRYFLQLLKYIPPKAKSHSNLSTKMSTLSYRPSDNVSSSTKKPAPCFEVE
Procedure: (§3) Compounds were evaluated for binding to the human recombinant AT2 and AT1 receptor according to Eurofins protocol ITEM26 and ITEM24 using a radiometric scintillation assay.

CYP1A = target: T2, CYP1A (Homo sapiens, UniProt P05177); assay: CYP inhibition in human liver microsomes (Eurofins protocol ITEMG232); format: in vitro ADME; conditions: substrate phenacetin; for CYP1A Inh %: 10 μM; for inhibition at 10 µM: probe phenacetin, read-out: CYP1A Inh %
T2 construct: using isoform-specific substrates incubated with human liver microsomes; tissue Eurofins ITEMG232; host or cells: human liver microsomes
T2 sequence (P05177 2-516 limits assumed): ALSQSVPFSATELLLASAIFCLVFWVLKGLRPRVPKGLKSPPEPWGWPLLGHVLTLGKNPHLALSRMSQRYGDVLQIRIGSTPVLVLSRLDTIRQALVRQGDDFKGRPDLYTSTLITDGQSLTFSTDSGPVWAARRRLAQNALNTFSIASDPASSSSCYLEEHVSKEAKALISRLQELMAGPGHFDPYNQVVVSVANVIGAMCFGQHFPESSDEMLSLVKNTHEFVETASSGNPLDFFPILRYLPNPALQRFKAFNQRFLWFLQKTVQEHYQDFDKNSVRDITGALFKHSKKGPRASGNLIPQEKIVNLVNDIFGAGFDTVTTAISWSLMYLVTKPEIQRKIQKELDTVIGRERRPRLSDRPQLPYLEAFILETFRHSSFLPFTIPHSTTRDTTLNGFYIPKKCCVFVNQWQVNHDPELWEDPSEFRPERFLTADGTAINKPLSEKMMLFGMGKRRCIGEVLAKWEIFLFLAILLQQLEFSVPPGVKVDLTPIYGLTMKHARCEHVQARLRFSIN
Procedure: (§1) The following substrates were used; CYP1A phenacetin, CYP2B6 bupropion, CYP2C8 paclitaxel and amodiaquine, CYP2C9 diclofenac, CYP2C19 omeprazole, CYP2D6 dextromethorphan, CYP3A midazolam and testosterone.
(§2) At the end of the incubation, the formation of metabolite was monitored by HPLC-MS/MS as the peak area response.

CYP2C19 = target: T3, CYP2C19 (Homo sapiens, UniProt P33261); assay: as above; format: in vitro ADME; conditions: substrate omeprazole; for CYP2C19 Inh %: 10 μM; for inhibition at 10 µM: probe omeprazole, read-out: CYP2C19 Inh %
T3 construct: using isoform-specific substrates incubated with human liver microsomes; tissue Eurofins ITEMG232; host or cells: human liver microsomes
Procedure: as §1, §2

[2] = target: T4, human recombinant AT2 receptor (Homo sapiens, UniProt P50052); assay: biochemical
T4 sequence (P50052 1-363): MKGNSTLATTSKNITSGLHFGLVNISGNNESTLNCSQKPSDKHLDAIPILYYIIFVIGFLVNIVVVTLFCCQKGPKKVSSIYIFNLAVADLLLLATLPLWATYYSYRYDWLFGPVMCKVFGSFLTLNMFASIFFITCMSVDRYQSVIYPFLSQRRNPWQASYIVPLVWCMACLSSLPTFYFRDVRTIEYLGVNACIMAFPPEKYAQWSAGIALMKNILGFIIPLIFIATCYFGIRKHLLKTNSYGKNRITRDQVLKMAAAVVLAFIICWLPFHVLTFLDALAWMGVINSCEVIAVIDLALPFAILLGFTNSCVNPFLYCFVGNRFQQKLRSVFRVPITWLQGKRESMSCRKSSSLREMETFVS
Procedure: as §3

[3] = target: T1, human recombinant AT1 receptor; assay: biochemical
Procedure: as §3

T3 sequence (P33261 whole entry, canonical isoform): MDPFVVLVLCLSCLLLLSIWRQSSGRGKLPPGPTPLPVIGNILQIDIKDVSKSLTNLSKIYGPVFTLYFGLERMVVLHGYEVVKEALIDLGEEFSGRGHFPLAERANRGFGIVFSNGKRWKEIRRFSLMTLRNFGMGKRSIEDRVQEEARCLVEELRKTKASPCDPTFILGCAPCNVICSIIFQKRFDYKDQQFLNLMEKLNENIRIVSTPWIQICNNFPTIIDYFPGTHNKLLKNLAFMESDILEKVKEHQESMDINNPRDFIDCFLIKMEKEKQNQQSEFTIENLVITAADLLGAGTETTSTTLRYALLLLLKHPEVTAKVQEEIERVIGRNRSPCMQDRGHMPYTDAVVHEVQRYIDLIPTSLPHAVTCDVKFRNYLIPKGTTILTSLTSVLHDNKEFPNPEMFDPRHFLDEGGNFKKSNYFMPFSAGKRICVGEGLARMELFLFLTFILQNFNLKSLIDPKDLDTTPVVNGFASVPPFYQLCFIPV

Row | IC50 [2] [nM] | IC50 [3] [nM] | inhibition at 10 µM (CYP1A) [%] | inhibition at 10 µM (CYP2C19) [%] | SMILES | IC50 [1] [nM] | CYP1A Inh % (CYP1A) [%] | CYP2C19 Inh % (CYP2C19) [%]
1 |  |  |  |  | CCOC(=O)NS(=O)(=O)c1sc(CC(C)C)cc1-c1ccc(Cn2ccnc2C)c(F)c1.O=C(O)C(F)(F)F [Example 1, Ethyl (3-(3-fluoro-4-((2-methyl-1H-imidazol-1-yl)methyl)phenyl)-5-isobutylthiophen-2-yl)sulfonvicarbamate trifluoroacetic acid] | > 1000 | 37 | 37
2 |  |  |  |  | COCCOC(=O)NS(=O)(=O)c1sc(CC(C)C)cc1-c1ccc(Cn2ccnc2C)c(F)c1.O=C(O)C(F)(F)F [Example 3] | > 1000 | −13 | 39
3 |  |  |  |  | CCc1nccn1Cc1ccc(-c2cc(CC(C)C)sc2S(=O)(=O)NC(=O)OCc2ccc(F)cc2)cc1F.O=C(O)C(F)(F)F [Example 6, 4-Fluorobenzyl (3-(4((2-ethyl-1H-imidazol-1-yl)methyl)-3-fluorophenyl)-5-isobutylthio-phen-2-yl)sulfonylcarbamate trifluoroacetic acid] | > 1000 | 35 | 52
4 |  |  |  |  | CCOC(=O)NS(=O)(=O)c1sc(CC(C)C)cc1-c1ccc(Cn2ccnc2CC)c(F)c1.O=C(O)C(F)(F)F [Example 7, Ethyl (3-(4-((2-ethyl-1H-imidazol-1-yl)methyl)-3-fluorophenyl)-5-isobutylthiophen-2-30 yl)sulfonylcarbamate trifluoroacetic acid] | > 1000 | 21 | 41
5 |  |  |  |  | CCOC(=O)NS(=O)(=O)c1sc(CC(C)C)cc1-c1ccc(Cn2ccnc2C(C)C)c(F)c1.O=C(O)C(F)(F)F [Example 8, Ethyl (3-(3-fluoro-4-((2-isopropyl-1H-imidazol-1-yl)methyl)phenyl)-5-isobutylthio-phen-2-yl)sulfonylcarbamate trifluoroacetic acid] | > 1000 | −13 | 39
6 |  |  |  |  | Cc1nccn1Cc1c(F)cc(-c2cc(CC(C)C)sc2S(=O)(=O)NC(=O)OCCO)cc1F [Example 18, 2-Hydroxyethyl (3-(3,5-difluoro-4-((2-methyl-1H-imidazol-1-yl)methyl)phenv1)-5-isobutylthiophen-2-yl)sulfonylcarbamate] | 16000 | 15.2 | 5.9
7 | 4.1 | 9000 | 84.3 | 54.1 | Cc1nccn1Cc1ccc(-c2cc(CC(C)C)sc2S(=O)(=O)NC(=O)OCCOC(=O)C(C)(C)C)cc1F [Example 19, 2-((((3-(3-Fluoro-4-((2-methyl-1H-imidazol-1-yl)methyl)phenyl)-5-isobutylthiophen-2-yl)sulfonyl)carbamoyl)oxy)ethyl pivalate] |  |  | 
8 | 1.82 | 2300 | 29 | 43.2 | CC(C)Cc1cc(-c2ccc(Cn3ccnc3C(C)(C)C)c(F)c2)c(S(=O)(=O)NC(=O)c2ccccn2)s1 [Example 27, N-((3-(4-((2-(Tert-Butyl)-1H-imidazol-1-yl)methyl)-3-fluorophenyl)-5-isobutylthio-phen-2-yl)sulfonyl)picolinamide] |  |  | 
